# In patent US6896892B2, “Insecticide-impregnated fabric and method of production” (The United States of America as represented by the …, priority 2000, dated 2005):
# “Also recorded” adds a separate entry of the source.
# Key:
# [1] = tested on: Anopheles gambiae mosquitoes (Kisumu [KIS] strain); assay: WHO cone bioassay of impregnated netting, knock-down and mortality, KIS strain; format: in vivo; conditions: nets 500 mg/m^2 permethrin alone; after five wash/rinse cycles
# Description: (§1) Insectary-reared and sugar-fed Anopheles gambiae mosquitoes (Kisumu [KIS], G3 and Asembo [AB] strains), 3-4 days old, were tested for susceptibility (or resistance) to permethrin-impregnated nets, using the WHO adult mosquito susceptibility test kit. About 20 mosquitoes were used in each assay. Cohort mosquitoes were then used to bioassay the pyrethroid-impregnated netting samples using the WHO cone bioassay with a 3 minute exposure time. During an assay, the cone was held on its side, which placed the net sample in a perpendicular or vertical position with respect to the floor, as is the case when testing an actual hanging net. In each assay 7-12 mosquitoes were used with 3-4 such assays run for each experiment. After exposure for the prescribed time, mortality was determined after the mosquitoes were held overnight (24 hours) in clean cartons with sugar water for nourishment. Final mortality was corrected for control mortality. Knock-down was defined as the number of mosquitoes alive or dead, present on the floor of the carton 30 minutes after exposure. Knock-down is considered to be a more accurate measurement of insecticide efficacy because in the wild any mosquito that falls to the ground serves almost immediately as food for other insects (e.g., ants). Temperature and humidity conducive to the survival of the mosquitoes were maintained.
# [2] = tested on: Anopheles gambiae mosquitoes (G3 strain); assay: WHO cone bioassay of impregnated netting, knock-down and mortality, G3 strain; format: in vivo; conditions: nets 500 mg/m^2 permethrin alone; two wash/rinse cycles
# Description: as §1
# [3] = tested on: Anopheles gambiae mosquitoes (Asembo [AB] strain); assay: WHO cone bioassay of impregnated netting, knock-down and mortality, AB strain; format: in vivo; conditions: nets 500 mg/m^2 permethrin alone; after one wash/rinse cycle
# Description: as §1
# [4] = tested on: Anopheles gambiae mosquitoes (Kisumu [KIS], G3 and Asembo [AB] strains); assay: WHO cone bioassay of impregnated netting, all strains; format: in vivo
# Description: as §1
# [5] = Wash/rinse cycles of netting samples, permethrin removed per cycle; format: physicochemical
# Description: Netting samples were repeatedly washed and each wash and rinse solution was analyzed to determine the concentration of impregnated insecticide removed during each wash cycle. After several wash/rinse cycles, when the insecticidal efficacy had become depleted, the residual insecticide on the net was also determined.
# A volume of 100 ml of a standardized detergent (2% aqueous sodium dodecyl sulfate [SDS]) was added to a 4 ounce wide mouth screw-cap bottle. An impregnated net sample (bioassayed beforehand) was folded twice and placed into the SDS solution, and the cap was applied and the bottle was shaken for 5 minutes on a mechanical shaker. After removing the cap, the net sample was removed, wrung out and placed in a 4 ounce bottle containing 100 ml of de-ionized water and shaken for five minutes, after which, the sample was removed, wrung out and left to dry overnight. The sample was rebioassayed the next day and at later times. To each wash solution was added a volume of 100 μl of the appropriate internal standard (IS) solution in acetone, and the contents were vigorously shaken by hand. To the rinse solution was added a 0.5 g quantity of dry SDS, and the contents were shaken to dissolve the SDS. Then a 100 μl volume of IS was added, and the contents were vigorously shaken. Two ml of each wash and rinse solution was then transferred to a 4 ml screw-cap vial, 3 ml of ethyl acetate were added and the contents were shaken. After centrifugation to clarify the ethyl acetate layer, about 1 ml of the ethyl acetate layer of each extract was transferred to an autosampler vial and injected onto the GC system described above to determine insecticide content.
# For washing experiments involving permethrin, the wash and rinse solutions were injected directly onto a reversed-phase, high-performance liquid chromatographic system with ultraviolet (UV) detection, to determine the permethrin content of the solutions.
compound,measurement,setting,value
"CC1(C)C(C=C(Cl)Cl)C1C(=O)OCc1cccc(Oc2ccccc2)c1 (stereo not drawn) [Permethrin Alone, permethrin]",knock-down,[1],less than 50%
same,mortality,[1],approximately 20%
same,knock-down,[2],approximately 20%
same,mortality,[2],~10%
same,effectiveness (knock-down and mortality),[3],completely ineffective; also recorded: all effectiveness with this strain was lost
same,effectiveness against all strains,"[4]; nets 500 mg/m^2 permethrin alone, six wash/rinse cycles",completely disappeared
same,effectiveness against all strains,"[4]; nets 1000 mg/m^2 permethrin alone, after four washings",lost most of their effectiveness
same,insecticide lost after the first washing,[5]; nets 500 or 1000 mg/m^2 permethrin alone,63-90%
same,Amt (%) washed off during a W/R cycle,"[5]; permethrin alone 500 mg/m^2, W/R = 1",63.0%
same,Amt (%) washed off during a W/R cycle,"[5]; permethrin alone 500 mg/m^2, W/R = 2",4.3%
same,Amt (%) washed off during a W/R cycle,"[5]; permethrin alone 500 mg/m^2, W/R = 3",4.7%
same,Amt (%) washed off during a W/R cycle,"[5]; permethrin alone 500 mg/m^2, W/R = 4",17.5%
same,Amt (%) washed off during a W/R cycle,"[5]; permethrin alone 500 mg/m^2, W/R = 5",7.6%
same,Amt (%) washed off during a W/R cycle,"[5]; permethrin alone 500 mg/m^2, W/R = 6",2.8%
same,Amt (%) washed off during a W/R cycle,"[5]; permethrin alone 1000 mg/m^2, W/R = 1",90.7%
same,Amt (%) washed off during a W/R cycle,"[5]; permethrin alone 1000 mg/m^2, W/R = 2",2.4%
same,Amt (%) washed off during a W/R cycle,"[5]; permethrin alone 1000 mg/m^2, W/R = 3",0.9%
same,Amt (%) washed off during a W/R cycle,"[5]; permethrin alone 1000 mg/m^2, W/R = 4",0.9%
